Laboratory results taken from patent US20070093520A1, “Method of treatment of diarrhea-predominant irritable bowel syndrome in a subject” (priority 2005, published 2007).

System: diarrhea-predominant IBS subjects
Test: 3008 Study: 12-lead ECG abnormalities
Format: in vivo, human
Conditions: 3007 Study
Protocol: Resting 12-lead ECGs were performed at Day 1 (Visit 5 of the core protocol), Months 1, 6, and 12 (end of study or early termination visit). A centralized ECG service was used to evaluate all ECG tracings to supply consistent standardized ECG interpretation.
For by-visit assessments, visit windows were assigned to the post-Baseline assessments as follows (vital signs, laboratory tests, and ECGs):
All analyses and summaries for ECG assessments were based on the evaluation performed in the central ECG laboratory.
Summary statistics are presented for PR, QRS, QT, and QTc intervals (Bazett and Fridericia formulas) and heart rate at each visit and at Endpoint, as well as for change from Baseline results at each post-Baseline visit and at Endpoint. Bazett's and Fridericia's QTc intervals were calculated based on the following formulas: Bazett: QTc intervals=QT/√RR Fridericia: QTc intervals=QT/^3√RR
Markedly abnormal ECG parameter values collected after the first dose of study medication and within 30 days of the last dose of study medication were summarized overall. The following criteria were applied to identify markedly abnormal parameter values: • PR ≧0.210 sec; • QRS ≧0.120 sec; • QTc >0.440 sec;
The incidence of treatment-emergent ECG abnormalities is presented overall and by type of abnormality. A treatment-emergent ECG abnormality was an abnormality identified by the ECG core laboratory that was not present at baseline (e.g., prior to the entry into core Study 3006), and was observed on or after initiation of study medication and up to 30 days after discontinuation of study medication. The incidence of treatment-emergent ECG abnormalities is presented by time interval, as well as overall for the entire treatment period. The incidence of treatment-emergent abnormalities is also presented in more general categories (e.g., presenting incidence of treatment-emergent myocardial infarction overall as well as by location), depending on whether it mitigates the interpretation.

SMILES: Cc1nccn1C[C@H]1CCc2c(c3cccc4c3n2CCC4)C1=O [cilansetron, (R)-(−)-4,5,6,8,9,10-hexahydro-10-[(2-methyl-1H-imidazol-1-yl)methyl]-11H-pyrido-[3,2,1-jk]-carbazol-11-one]
- ECG abnormality: early-repolarization-normal variant: > 10%
- ECG abnormality: sinus arrhythmia: > 10%
- ECG abnormality: sinus bradycardia: > 10%
- incidence of treatment-emergent markedly abnormal QTc(F) (30 subjects): 2%
- incidence of treatment-emergent markedly abnormal QTc(B) (105 subjects): 8%
